“Also recorded” adds a separate entry of the source. Bridges are numbered along the chain shown (N, C = ends). Where no end group is shown, it is not given here.
How the values were obtained:
[1] = tested on: alternative pathway C5b deposition (complement C5); assay: Alternative pathway C5b deposition ELISA; format: biochemical, human; conditions: n=3 (K8: n=5; K92: n=4), ND* = Not detected
Source text: Figure 1. Functional modulation of C5 via knob domain peptides. […] Following activation of C1q via antibody Fc, C4 and C2 are cleaved and form C4bC2a (the CP C3 convertase) which cleaves C3 into C3a (not shown) and C3b. At high C3b concentrations, C4bC2aC3b (the CP […]) forms and cleaves C5 into C5a and C5b. C5b associates with C6 and forms the membrane attack complex (MAC) with C7, C8, and multiple copies of C9. […] In the presence of factor B and factor D, C3bBb (the AP C3 convertase) generates additional C3b, prompting formation of C3bBbC3b (the AP C5 convertase), which cleaves C5 into C5a and C5b, driving MAC formation. CP-driven ELISAs (C) and AP-driven ELISAs (D) are shown. For both pathways, the inhibition of C3d (the surface-associated domain of C3b, which is upstream of C5 inhibition), C5a release, and C5b neo-epitope formation and C9 deposition were tracked within the MAC. […] For the AP assays, 5% serum (v/v) gives a putative C5 concentration of 20 nM. For the CP assays, 1% serum (v/v) gives a putative C5 concentration of 4 nM, based on a reported C5 serum concentration of 397 nM/75 µg/mL ([Sjöholm, 1975]).
For the C5b ELISA, assays were run using the CP and AP Complement functional ELISA kits (Svar Life Science, Malmö, Sweden). For sample preparation, serum was diluted as per the respective protocol for the CP and AP assays. […]

human C5 = molecular target: T1, human C5 (Homo sapiens, UniProt P01031); assay: SPR cross blocking; format: binding; conditions: HBS-EP, qualitative
T1 construct: tissue TCS Biosciences (serum); host or cells: human serum
Procedure: To test for cross blocking, arising from overlapping epitopes, or cooperativity between knob domains, we performed a surface plasmon resonance (SPR) cross blocking experiment, where, using a Biacore 8K, we saturated a C5-coated sensor chip with two 20 µM injections of knob domain peptide before injecting a different peptide at 20 µM to assess its capacity to bind. This provides a qualitative measure of cross blocking, whereby an increase in response units (RUs) indicates ternary complex formation, stoichiometries, or kinetics cannot be reliably derived with concurrent dissociation of both peptides (Figure 2).
On a Biacore 8K (GE Healthcare, Amersham, UK), human C5 was amine coupled to a CM5 chip using the same protocol as for C5b. A final immobilisation level of approximately 1000–2000 RUs was obtained. For cross blocking, the surface was saturated with two sequential injections of a 20 µM knob domain solution in HBS-EP buffer (GE Healthcare, Amersham, UK) using a flow rate of 30 µL/min and contact time of 300 s. This was immediately followed with an injection of a second knob domain peptide, again at 20 µM in HBS-EP, with a flow rate of 30 µL/min and a contact time of 270 s, and the dissociation phase was measured for 600 s. […]

C5 activation by the CP = assay: Complement activation assays, classical pathway (overall); format: biochemical; conditions: C5a release, C5b neo-epitope formation and C9 deposition ELISAs; human serum
Procedure: For functional characterisation of the peptides, we performed complement assays for CP and AP activation in human serum, assessing C5b neo-epitope formation and C5a release (schematically presented in Figure 1A, B), in combination with orthogonal ELISAs, measuring C3b and C9 deposition.
For the C3 and C9 ELISAs, microtiter plates (MaxiSorp; Nunc) were incubated overnight at 4°C with 50 µL of a solution of in 75 mM sodium carbonate (pH 9.6) containing either 2.5 µg/mL aggregated human IgG (Sigma-Aldrich, Gillingham, UK) for CP or 20 µg/mL zymosan (Sigma-Aldrich, Gillingham, UK) for AP. As a negative control, wells were coated with 1% (w/v) bovine serum albumin (BSA)/PBS. […] Complement activation was assessed through detection of deposited complement activation factors using specific antibodies against C3b (rat anti-human C3d HM2198, Hycult, Uden, The Netherlands) and C9 (goat anti-human C9, A226, Complement Technologies Tyler, TX) at a 1:1000 dilution. Bound primary antibodies were detected with […]-conjugated goat anti-rat (ab97057, Abcam, Cambridge, UK) or rabbit anti-goat (P0449, Agilent Dako, Santa Clara, CA) secondary antibodies at a 1:1000 dilution. Bound HRP-conjugated antibodies were detected using TMB One solution (Eco-TEK – manufactured by Bio-TEK, Winooski, VT) with absorbance measured at 450 nm. […]

C3b deposition = C3b deposition ELISA (CP and AP); format: biochemical; conditions: CP (1% serum) and AP (5% serum) ELISA, anti-human C3d
Procedure: For the C3 and C9 ELISAs, microtiter plates (MaxiSorp; Nunc) were incubated overnight at 4°C with 50 µL of a solution of in 75 mM sodium carbonate (pH 9.6) containing either 2.5 µg/mL aggregated human IgG (Sigma-Aldrich, Gillingham, UK) for CP or 20 µg/mL zymosan (Sigma-Aldrich, Gillingham, UK) for AP. As a negative control, wells were coated with 1% (w/v) bovine serum albumin (BSA)/PBS. Microtiter plates were washed four times with 250 µL of wash buffer (50 mM Tris-HCl), 150 mM NaCl and 0.1% Tween 20 (pH 8) between each step of the procedure. Wells were blocked using 250 µL of 1% (w/v) BSA/PBS for 2 hr at room temperature. […] Complement activation was assessed through detection of deposited complement activation factors using specific antibodies against C3b (rat anti-human C3d HM2198, Hycult, Uden, The Netherlands) and C9 (goat anti-human C9, A226, Complement Technologies Tyler, TX) at a 1:1000 dilution. Bound primary antibodies were detected with […]-conjugated goat anti-rat (ab97057, Abcam, Cambridge, UK) or rabbit anti-goat (P0449, Agilent Dako, Santa Clara, CA) secondary antibodies at a 1:1000 dilution. Bound HRP-conjugated antibodies were detected using TMB One solution (Eco-TEK – manufactured by Bio-TEK, Winooski, VT) with absorbance measured at 450 nm.

T1 sequence (P01031 678-1676 limits assumed): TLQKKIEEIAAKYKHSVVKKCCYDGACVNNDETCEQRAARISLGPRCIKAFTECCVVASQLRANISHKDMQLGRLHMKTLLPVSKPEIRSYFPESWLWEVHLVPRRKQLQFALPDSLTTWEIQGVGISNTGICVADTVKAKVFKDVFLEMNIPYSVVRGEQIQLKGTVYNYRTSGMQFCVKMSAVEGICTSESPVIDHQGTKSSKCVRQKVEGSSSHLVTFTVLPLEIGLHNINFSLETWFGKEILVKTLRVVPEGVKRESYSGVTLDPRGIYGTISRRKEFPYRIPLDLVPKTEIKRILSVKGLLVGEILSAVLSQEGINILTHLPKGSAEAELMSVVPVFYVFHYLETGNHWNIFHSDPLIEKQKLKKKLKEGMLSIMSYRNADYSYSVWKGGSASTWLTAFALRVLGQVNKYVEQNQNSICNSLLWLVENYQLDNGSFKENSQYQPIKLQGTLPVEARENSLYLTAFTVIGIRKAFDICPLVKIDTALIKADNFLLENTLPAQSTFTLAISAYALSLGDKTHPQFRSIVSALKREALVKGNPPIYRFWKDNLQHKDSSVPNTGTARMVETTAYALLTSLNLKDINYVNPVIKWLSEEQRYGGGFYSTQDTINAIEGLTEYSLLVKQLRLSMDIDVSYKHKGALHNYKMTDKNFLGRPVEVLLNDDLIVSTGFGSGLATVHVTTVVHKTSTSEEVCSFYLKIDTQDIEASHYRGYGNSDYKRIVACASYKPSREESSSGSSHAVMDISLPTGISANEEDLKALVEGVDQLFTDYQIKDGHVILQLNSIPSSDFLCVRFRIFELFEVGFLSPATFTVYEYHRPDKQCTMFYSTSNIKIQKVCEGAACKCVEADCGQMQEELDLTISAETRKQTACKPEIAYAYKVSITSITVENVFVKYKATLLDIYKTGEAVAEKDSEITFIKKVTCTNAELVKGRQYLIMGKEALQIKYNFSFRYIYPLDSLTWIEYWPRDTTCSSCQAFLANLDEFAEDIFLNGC
T1 sequence (P01031 19-673 limits assumed): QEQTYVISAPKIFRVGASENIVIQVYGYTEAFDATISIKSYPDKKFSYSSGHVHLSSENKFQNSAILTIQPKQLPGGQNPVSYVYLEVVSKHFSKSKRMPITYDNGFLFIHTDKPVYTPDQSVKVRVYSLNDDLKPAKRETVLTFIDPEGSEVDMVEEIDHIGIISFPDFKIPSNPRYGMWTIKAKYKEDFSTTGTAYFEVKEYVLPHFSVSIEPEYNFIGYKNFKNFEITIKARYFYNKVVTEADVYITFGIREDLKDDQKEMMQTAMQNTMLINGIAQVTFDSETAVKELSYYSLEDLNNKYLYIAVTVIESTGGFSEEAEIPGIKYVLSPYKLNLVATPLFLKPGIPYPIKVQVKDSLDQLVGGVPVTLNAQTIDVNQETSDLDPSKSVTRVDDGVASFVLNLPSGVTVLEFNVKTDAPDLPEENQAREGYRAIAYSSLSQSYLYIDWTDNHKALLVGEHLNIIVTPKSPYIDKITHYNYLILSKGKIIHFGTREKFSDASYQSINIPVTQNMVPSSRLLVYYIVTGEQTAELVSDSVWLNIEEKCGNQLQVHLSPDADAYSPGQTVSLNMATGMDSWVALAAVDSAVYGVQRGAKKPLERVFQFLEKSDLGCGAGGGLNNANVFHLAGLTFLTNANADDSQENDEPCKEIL

Q: For “SVCPDGFDWGYGCAAGSSRFCTRHDWCCYDERADSHTYGFCTGNRVENLYFQ (disulfide 3-28, 13-21, 27-41) [K8]”, which “Average Emax” value ([1]; AP C5b ELISA, preincubated 15 min RT) is on record?
A: 91.8%

Q: And the IC50 ([1]; AP functional ELISA kit (Svar), peptide preincubated with human serum 15 min RT, AP 5% serum, putative 20 nM C5, read-out: Geomean IC50)?
A: 29.2 nM

Q: And the “binding to C5 saturated with K57” value (human C5; two 20 µM injections of K57, then 20 µM second peptide)?
A: can bind, albeit at a lower level; also recorded: could still partially bind

Q: What about the “binding to C5 saturated with K92” value (human C5; two 20 µM injections of K92, then 20 µM second peptide) of the same sequence?
A: can bind, albeit at a lower level; also recorded: still able to bind, albeit to a lesser degree

Q: What about the “inhibition of C5 activation, CP assays (in words)” value (C5 activation by the CP) of the same sequence?
A: partially inhibiting both the AP and CP

Q: What about the “effect on C3b deposition” value (C3b deposition) of the same sequence?
A: no effect on C3b deposition was detected

From publication PMC7972453, “The allosteric modulation of complement C5 by knob domain peptides” (eLife, 2021)
